In patent publication US10927115B2, “Substituted heterocycles for targeting Hsp90” (Duke University, priority 2012, dated 2021):

Assays:
[1] = system: Hsp90; assay: Recovery of compound 10 bound to purified Hsp90 by microanion exchange chromatography; format: binding, pig; settings: excess compound 10, dialysis; Western blot and mass spectrometry; FIG. 13A
Procedure: (§1) Hsp90 was purified from pig mammary gland as described in Hughes et al., Bioorg Med Chem. 2012, 20(10):3298-3305. The purified protein (0.3 g) was mixed with an excess of compound 10. The unbound probe was removed by dialysis and the labeled protein subjected to microanion exchange chromatography using a Pharmacia SMART system. Column fractions (100 μL) were collected and analyzed for fluorescence in a plate reader. […] The chromatography experiment was then repeated on cell extracts prepared from MCF7 and BT474 cells treated with compound 10.

[2] = system: MCF7 cells; assay: Anion exchange chromatography of extracts of cells treated with compound 10; format: cell-based; settings: MCF7 cells treated with compound 10; peak at 49 minutes
Procedure: as §1

[3] = system: BT474 cells; assay: as above; format: cell-based; settings: BT474 cells treated with compound 10; peak at 49 minutes
Procedure: as §1

[4] = system: MCF cells; assay: Heat treatment of cells, compound 10 uptake, micro anion-exchange chromatography of extracts; format: cell-based; settings: 10 μM, FIG. 13B
Procedure: MCF cells were heated to 42° C. or maintained at 37° C. for 60 minutes. Compound 10 was added (10 μM) and after 60 minutes the cells harvested. Extracts were prepared and separated by micro anion-exchange chromatography. Column fractions were analyzed for the presence of compound 10.

[5] = system: MDA MB 468 xenografts; assay: Fluorescence imaging of HSP90 expression in mouse xenografts (IVIS imager, plate reader); format: in vivo, Mice
Procedure: Mice with MDA MB 468 xenografts were injected with either 0.1, 0.5 or 1 mg of compound 10 intravenously. The animals were then immediately imaged in real time in an IVIS Kinetic imager (Caliper Life Science) for the presence of fluorescence at 465ex/520em. After two hours the tumors were excised and examined for the presence of compound 10.
Red image (false, 1 vs. 2) clearly demarks the tumor over background signal (appearing very dark gray in FIG. 14A).
Measurements were made in the IVIS imager or by preparing cells extracts from the tumors and measuring their fluorescence in a microtitre plate reader.

[6] = system: MDA-MB-468 tumor; assay: Tumor labeling experiment, frozen sections under fluorescent microscope; format: in vivo, NOD/SCID mice; settings: 1 mg/mouse intraperitoneal; from 2 to 48 h; FIG. 12
Procedure: MDA-MB-468 tumor cells (5 M cells/mouse) were injected to the flank of NOD/SCID mice. After 3 weeks, tumor volumes reached 400-450 mm^3. Mice were treated/untreated with intraperitoneal injection of compound 10 (1 mg/mouse). After 2, 24, 48 and 72 hours, mice were sacrificed, and tumor tissues were frozen in OCT compound. FITC(+) cells in tumor tissues (frozen sections) were analyzed under fluorescent microscope (Axio Observer). In FIG. 12, the green staining from compound 10 fluorescence appears white or light gray.

Cc1nn(-c2ccc(C(N)=O)c(NCCCOCCOCCOCCOCCOCCCNC(=S)Nc3ccc4c(c3)C(=O)OC43c4ccc(O)cc4Oc4cc(O)ccc43)c2)c2c1C(=O)CC(C)(C)C2 [Compound 10, 2-((1-((3′,6′-dihydroxy-3-oxo-3H-spiro[isobenzofuran-1,9′-xanthen]-5-yl)amino)-1-thioxo-6,9,12,15,18-pentaoxa-2-azahenicosan-21-yl)amino)-4-(3,6,6-trimethyl-4-oxo-4,5,6,7-tetrahydro-1H-indazol-1-yl)benzamide]
fluorescence elution profile of labeled purified Hsp90 [1]: single peak was recovered by fluorescence that correlated with elution of Hsp90 | fluorescence peak of cell extract [2]: co-elutes with Hsp90 | fluorescence peak of cell extract [3]: co-elutes with Hsp90 | major peak of fluorescence of cell extract ([4]; 60 minutes): correlates with elution of Hsp90 | effect of heat treatment on uptake ([4]; 42° C. vs 37° C. for 60 minutes): increased uptake | accumulation in tumors isolated from mice ([5]; indicated doses, IVIS imager or tumor cell extracts in plate reader, FIG. 14B, 14C): accumulates selectively within the tumor mass in a dose dependent manner | accumulation in the xenograft, real time imaging ([5]; tail vein injection, 465ex/520em, FIG. 14A): rapid accumulation | FITC signal of tumor cells in frozen sections [6]: intense FITC signal
